For 13 compounds, IC50 results are on record in patent US20230406885A1, “CYCLIC PEPTIDES FOR TRAPPING INTERLEUKIN-1 BETA” (MERCK SHARP & DOHME LLC, priority 2022, published 2023).

Broadly, the IC50 is the concentration at which inhibition is half-maximal.

*1 amine or outer side, *2 acyl side, *3 side chain or, on linkers, in order; H or OH if unused. Where a SMILES comes first, the peptide text is derived from it. [ ]: non-standard residue; d: D form. Trp(4-Cl)(βS-Me) = C[C@@H](c1c[nH]c2cccc(Cl)c12)[C@H](N)C(=O)O; Ala(piperidin-4-yl) = O=C([C@H](CC1CCN([*:3])CC1)N[*:1])[*:2]; Bip(4'-COOH) = N[C@@H](Cc1ccc(-c2ccc(C(=O)O)cc2)cc1)C(=O)O; Phe(4-COOH) = N[C@@H](Cc1ccc(C(=O)O)cc1)C(=O)O; Pro(4R-NH2) = N[C@H]1CN[C@H](C(=O)O)C1; 1Nal = N[C@@H](Cc1cccc2ccccc12)C(=O)O; hTyr = N[C@@H](CCc1ccc(O)cc1)C(=O)O; 3Pal = N[C@@H](Cc1cccnc1)C(=O)O; 4Pal = N[C@@H](Cc1ccncc1)C(=O)O; dDab = NCC[C@@H](N)C(=O)O; Orn = NCCC[C@H](N)C(=O)O; dNMeA = CN[C@H](C)C(=O)O; Dap = NC[C@H](N)C(=O)O; Aib = CC(C)(N)C(=O)O

The target in this assay is T1, Recombinant human IL-1β (Homo sapiens, UniProt P01584).
T1 construct: purchased BioLegend 579404
T1 sequence (P01584 117-269): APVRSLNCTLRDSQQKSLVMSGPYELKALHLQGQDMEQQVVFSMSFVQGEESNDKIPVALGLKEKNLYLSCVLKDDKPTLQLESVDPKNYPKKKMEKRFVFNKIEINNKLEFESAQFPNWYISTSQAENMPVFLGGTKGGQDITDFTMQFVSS
Description: IL-6 assay in MRC5 cells: inhibition of IL-1β induced IL-6 secretion (AlphaLISA). In kind it is cell-based. To be noted: inhibition of IL-1β induced IL-6 secretion in MRC5 cells; IL-1β pre-incubated 1 hour with compound; read-out: MRC5 IC50. The procedure, abridged:
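IL-1β at 2×EC80 in seeding medium (EMEM, 0.025% BSA) preincubated 1 h at ambient temperature with compound, then 3000 MRC5 cells/well added and incubated overnight at 37 °C, 5% CO2. IL-6 in conditioned medium quantified by AlphaLISA; IC50 from 4-parameter logistic fit.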
For the compound `CC(C)C[C@@H]1NC(=O)[C@H](Cc2cccc3ccccc23)NC(=O)[C@H](Cc2ccc(-c3ccc(C(=O)O)cc3)cc2)NC(=O)CNC(=O)[C@@H](C)N(C)C(=O)[C@H](CC(=O)O)NC(=O)[C@H]([C@@H](C)c2c[nH]c3cccc(Cl)c23)NC(=O)[C@@H]2C[C@@H](N)CN2C(=O)CNC(=O)[C@H](Cc2ccc(C(=O)O)cc2)NC(=O)[C@H](Cc2c[nH]c3ccccc23)NC(=O)[C@H](Cc2ccc(-c3ccc(C(=O)O)cc3)cc2)NC(=O)CNC(=O)C(C)(C)NC1=O` [Example 35] (cyclo([Bip(4'-COOH)]W[Phe(4-COOH)]G[Pro(4R-NH2)][Trp(4-Cl)(βS-Me)]D[dNMeA]G[Bip(4'-COOH)][1Nal]L[Aib]G)), the IC50 was 0.16 nM. The figure for `CC(C)C[C@@H]1NC(=O)[C@H](Cc2cccc3ccccc23)NC(=O)[C@H](Cc2ccc(-c3ccc(C(=O)O)cc3)cc2)NC(=O)CNC(=O)[C@@H](C)N(C)C(=O)[C@H](CC(=O)O)NC(=O)[C@H]([C@@H](C)c2c[nH]c3cccc(Cl)c23)NC(=O)[C@@H]2C[C@@H](N)CN2C(=O)CNC(=O)[C@H](Cc2ccc(C(=O)O)cc2)NC(=O)[C@H](Cc2c[nH]c3ccccc23)NC(=O)[C@H](Cc2ccc(-c3ccc(C(=O)O)cc3)cc2)NC(=O)[C@H](CCc2ccc(O)cc2)NC(=O)C(C)(C)NC1=O` [Example 36] (cyclo([Bip(4'-COOH)]W[Phe(4-COOH)]G[Pro(4R-NH2)][Trp(4-Cl)(βS-Me)]D[dNMeA]G[Bip(4'-COOH)][1Nal]L[Aib][hTyr])) is 0.0522 nM.

Take `C[C@@H]1C(=O)NCC(=O)N[C@@H](Cc2ccc(-c3ccc(C(=O)O)cc3)cc2)C(=O)N[C@@H](Cc2cccc3ccccc23)C(=O)N[C@@H](CCCN)C(=O)NC(C)(C)C(=O)NCC(=O)N[C@@H](Cc2ccc(-c3ccc(C(=O)O)cc3)cc2)C(=O)N[C@@H](Cc2c[nH]c3ccccc23)C(=O)N[C@@H](Cc2ccc(C(=O)O)cc2)C(=O)NCC(=O)N2C[C@H](N)C[C@H]2C(=O)N[C@@H]([C@@H](C)c2c[nH]c3cccc(Cl)c23)C(=O)N[C@@H](CC(=O)O)C(=O)N1C` [Example 37] (cyclo([Bip(4'-COOH)]W[Phe(4-COOH)]G[Pro(4R-NH2)][Trp(4-Cl)(βS-Me)]D[dNMeA]G[Bip(4'-COOH)][1Nal][Orn][Aib]G)): the IC50 amounted to 0.103 nM.

Consider `C[C@@H]1C(=O)NCC(=O)N[C@@H](Cc2ccc(-c3ccc(C(=O)O)cc3)cc2)C(=O)N[C@@H](Cc2cccnc2)C(=O)N[C@@H](CO)C(=O)N[C@H](C)C(=O)N[C@@H](CCc2ccc(O)cc2)C(=O)N[C@@H](Cc2ccc(-c3ccc(C(=O)O)cc3)cc2)C(=O)N[C@@H](Cc2c[nH]c3ccccc23)C(=O)N[C@@H](Cc2ccc(C(=O)O)cc2)C(=O)NCC(=O)N2C[C@H](N)C[C@H]2C(=O)N[C@@H]([C@@H](C)c2c[nH]c3cccc(Cl)c23)C(=O)N[C@@H](CC(=O)O)C(=O)N1C` [Example 38] (cyclo([Bip(4'-COOH)]W[Phe(4-COOH)]G[Pro(4R-NH2)][Trp(4-Cl)(βS-Me)]D[dNMeA]G[Bip(4'-COOH)][3Pal]S[dA][hTyr])), for which the 50% inhibitory concentration (IC50) came to 0.217 nM. On to `C[C@@H]1C(=O)NCC(=O)N[C@@H](Cc2ccc(-c3ccc(C(=O)O)cc3)cc2)C(=O)N[C@@H](Cc2ccncc2)C(=O)N[C@@H](CO)C(=O)N[C@H](C)C(=O)N[C@@H](CCc2ccc(O)cc2)C(=O)N[C@@H](Cc2ccc(-c3ccc(C(=O)O)cc3)cc2)C(=O)N[C@@H](Cc2c[nH]c3ccccc23)C(=O)N[C@@H](Cc2ccc(C(=O)O)cc2)C(=O)NCC(=O)N2C[C@H](N)C[C@H]2C(=O)N[C@@H]([C@@H](C)c2c[nH]c3cccc(Cl)c23)C(=O)N[C@@H](CC(=O)O)C(=O)N1C` [Example 39] (cyclo([Bip(4'-COOH)]W[Phe(4-COOH)]G[Pro(4R-NH2)][Trp(4-Cl)(βS-Me)]D[dNMeA]G[Bip(4'-COOH)][4Pal]S[dA][hTyr])), for which the IC50 is 0.232 nM. Then `C[C@@H]1C(=O)NCC(=O)N[C@@H](Cc2ccc(-c3ccc(C(=O)O)cc3)cc2)C(=O)N[C@@H](CC2CCNCC2)C(=O)N[C@@H](CO)C(=O)N[C@H](C)C(=O)N[C@@H](CCc2ccc(O)cc2)C(=O)N[C@@H](Cc2ccc(-c3ccc(C(=O)O)cc3)cc2)C(=O)N[C@@H](Cc2c[nH]c3ccccc23)C(=O)N[C@@H](Cc2ccc(C(=O)O)cc2)C(=O)NCC(=O)N2C[C@H](N)C[C@H]2C(=O)N[C@@H]([C@@H](C)c2c[nH]c3cccc(Cl)c23)C(=O)N[C@@H](CC(=O)O)C(=O)N1C` [Example 40] (cyclo([Bip(4'-COOH)]W[Phe(4-COOH)]G[Pro(4R-NH2)][Trp(4-Cl)(βS-Me)]D[dNMeA]G[Bip(4'-COOH)][Ala(piperidin-4-yl)]S[dA][hTyr])), with 0.508 nM.

For the compound `C[C@@H]1C(=O)NCC(=O)N[C@@H](Cc2ccc(-c3ccc(C(=O)O)cc3)cc2)C(=O)N[C@@H](CN)C(=O)N[C@@H](CO)C(=O)N[C@H](C)C(=O)N[C@@H](CCc2ccc(O)cc2)C(=O)N[C@@H](Cc2ccc(-c3ccc(C(=O)O)cc3)cc2)C(=O)N[C@@H](Cc2c[nH]c3ccccc23)C(=O)N[C@@H](Cc2ccc(C(=O)O)cc2)C(=O)NCC(=O)N2C[C@H](N)C[C@H]2C(=O)N[C@@H]([C@@H](C)c2c[nH]c3cccc(Cl)c23)C(=O)N[C@@H](CC(=O)O)C(=O)N1C` [Example 41] (cyclo([Bip(4'-COOH)]W[Phe(4-COOH)]G[Pro(4R-NH2)][Trp(4-Cl)(βS-Me)]D[dNMeA]G[Bip(4'-COOH)][Dap]S[dA][hTyr])), the IC50 was 0.469 nM. As for `CC(C)C[C@@H]1NC(=O)[C@H](CCCCN)NC(=O)[C@H](Cc2ccc(-c3ccc(C(=O)O)cc3)cc2)NC(=O)CNC(=O)[C@@H](C)N(C)C(=O)[C@H](CC(=O)O)NC(=O)[C@H]([C@@H](C)c2c[nH]c3cccc(Cl)c23)NC(=O)[C@@H]2C[C@@H](N)CN2C(=O)CNC(=O)[C@H](Cc2ccc(C(=O)O)cc2)NC(=O)[C@H](Cc2c[nH]c3ccccc23)NC(=O)[C@H](Cc2ccc(-c3ccc(C(=O)O)cc3)cc2)NC(=O)[C@H](CCc2ccc(O)cc2)NC(=O)[C@@H](C)NC1=O` [Example 42] (cyclo([Bip(4'-COOH)]W[Phe(4-COOH)]G[Pro(4R-NH2)][Trp(4-Cl)(βS-Me)]D[dNMeA]G[Bip(4'-COOH)]KL[dA][hTyr])), the IC50 came out at 0.627 nM. Then `CC(C)C[C@@H]1NC(=O)[C@H](CCCCN)NC(=O)[C@H](Cc2ccc(-c3ccc(C(=O)O)cc3)cc2)NC(=O)CNC(=O)[C@@H](C)N(C)C(=O)[C@H](CC(=O)O)NC(=O)[C@H]([C@@H](C)c2c[nH]c3cccc(Cl)c23)NC(=O)[C@@H]2C[C@@H](N)CN2C(=O)CNC(=O)[C@H](Cc2ccc(C(=O)O)cc2)NC(=O)[C@H](Cc2c[nH]c3ccccc23)NC(=O)[C@H](Cc2ccc(-c3ccc(C(=O)O)cc3)cc2)NC(=O)[C@H](CCc2ccc(O)cc2)NC(=O)[C@@H](CCN)NC1=O` [Example 43] (cyclo([Bip(4'-COOH)]W[Phe(4-COOH)]G[Pro(4R-NH2)][Trp(4-Cl)(βS-Me)]D[dNMeA]G[Bip(4'-COOH)]KL[dDab][hTyr])), with 0.244 nM; and `CC(C)C[C@@H]1NC(=O)[C@H](CCCCN)NC(=O)[C@H](Cc2ccc(-c3ccc(C(=O)O)cc3)cc2)NC(=O)CNC(=O)[C@@H](C)N(C)C(=O)[C@H](CC(=O)O)NC(=O)[C@H]([C@@H](C)c2c[nH]c3cccc(Cl)c23)NC(=O)[C@@H]2C[C@@H](N)CN2C(=O)CNC(=O)[C@H](Cc2ccc(C(=O)O)cc2)NC(=O)[C@H](Cc2c[nH]c3ccccc23)NC(=O)[C@H](Cc2ccc(-c3ccc(C(=O)O)cc3)cc2)NC(=O)[C@H](CCc2ccc(O)cc2)NC(=O)[C@@H](CO)NC1=O` [Example 44] (cyclo([Bip(4'-COOH)]W[Phe(4-COOH)]G[Pro(4R-NH2)][Trp(4-Cl)(βS-Me)]D[dNMeA]G[Bip(4'-COOH)]KL[dS][hTyr])), with 0.132 nM. Regarding `C[C@@H]1C(=O)NCC(=O)N[C@@H](Cc2ccc(-c3ccc(C(=O)O)cc3)cc2)C(=O)N[C@@H](CCCCN)C(=O)N[C@@H](CO)C(=O)N[C@H](C)C(=O)N[C@@H](CCc2ccc(O)cc2)C(=O)N[C@@H](Cc2ccc(-c3ccc(C(=O)O)cc3)cc2)C(=O)N[C@@H](Cc2c[nH]c3ccccc23)C(=O)N[C@@H](Cc2ccc(C(=O)O)cc2)C(=O)NCC(=O)N2C[C@H](N)C[C@H]2C(=O)N[C@@H]([C@@H](C)c2c[nH]c3cccc(Cl)c23)C(=O)N[C@@H](CC(=O)O)C(=O)N1C` [Example 45] (cyclo([Bip(4'-COOH)]W[Phe(4-COOH)]G[Pro(4R-NH2)][Trp(4-Cl)(βS-Me)]D[dNMeA]G[Bip(4'-COOH)]KS[dA][hTyr])), the half-maximal inhibitory concentration (IC50) is 0.174 nM.

`C[C@@H]1C(=O)NCC(=O)N[C@@H](Cc2ccc(-c3ccc(C(=O)O)cc3)cc2)C(=O)N[C@@H](CCCCN)C(=O)N[C@@H](CO)C(=O)N[C@H](CCN)C(=O)N[C@@H](CCc2ccc(O)cc2)C(=O)N[C@@H](Cc2ccc(-c3ccc(C(=O)O)cc3)cc2)C(=O)N[C@@H](Cc2c[nH]c3ccccc23)C(=O)N[C@@H](Cc2ccc(C(=O)O)cc2)C(=O)NCC(=O)N2C[C@H](N)C[C@H]2C(=O)N[C@@H]([C@@H](C)c2c[nH]c3cccc(Cl)c23)C(=O)N[C@@H](CC(=O)O)C(=O)N1C` [Example 46] (cyclo([Bip(4'-COOH)]W[Phe(4-COOH)]G[Pro(4R-NH2)][Trp(4-Cl)(βS-Me)]D[dNMeA]G[Bip(4'-COOH)]KS[dDab][hTyr])): the IC50 was 0.134 nM. Consider `C[C@@H]1C(=O)NCC(=O)N[C@@H](Cc2ccc(-c3ccc(C(=O)O)cc3)cc2)C(=O)N[C@@H](CCCCN)C(=O)N[C@@H](CO)C(=O)N[C@H](CO)C(=O)N[C@@H](CCc2ccc(O)cc2)C(=O)N[C@@H](Cc2ccc(-c3ccc(C(=O)O)cc3)cc2)C(=O)N[C@@H](Cc2c[nH]c3ccccc23)C(=O)N[C@@H](Cc2ccc(C(=O)O)cc2)C(=O)NCC(=O)N2C[C@H](N)C[C@H]2C(=O)N[C@@H]([C@@H](C)c2c[nH]c3cccc(Cl)c23)C(=O)N[C@@H](CC(=O)O)C(=O)N1C` [Example 47] (cyclo([Bip(4'-COOH)]W[Phe(4-COOH)]G[Pro(4R-NH2)][Trp(4-Cl)(βS-Me)]D[dNMeA]G[Bip(4'-COOH)]KS[dS][hTyr])), for which the IC50 stood at 0.123 nM.
